Source: paper PMC10945556, “Design, Synthesis, and Antifungal Activity of 3-Substituted-2(5H)-Oxaboroles” (ACS Medicinal Chemistry Letters, 2024)
Converted amounts (≈) assume the structure as drawn.

Experiments:
[1] = tested on: P. aeruginosa; assay: MIC, microbroth dilution; format: cell-based, Pseudomonas aeruginosa; details: Pseudomonas aeruginosa
[2] = tested on: C. albicans; assay: MIC, microbroth dilution; format: cell-based, Candida albicans; details: Candida albicans
[3] = tested on: S. cerevisiae; assay: MIC, microbroth dilution; format: cell-based, Saccharomyces cerevisiae; details: Saccharomyces cerevisiae
[4] = tested on: P. chrysogenum; assay: MIC, dose-dependent solid media assay; format: cell-based, Penicillium chrysogenum; details: Penicillium chrysogenum
[5] = Hemolytic assay; format: cell-based; details: 50 and 100 μM for 1 h
Description: (§1) In general, very little growth inhibition was observed against either Gram-positive or Gram-negative bacterial pathogens. […] The SAR for the antibacterial is dissimilar to that observed for the antifungal properties.
(§2) Figure 3 (A) Cell viability assay against H9c2 cell line at 100 μM for 24 h (normalized to PBS no treatment), (B) Hemolytic assay at 50 and 100 μM for 1 h (normalized to triton X-100 positive control). Error bars in both graphs represent standard error of mean (SEM) of replicates (n = 3).

[6] = tested on: A. flavus; assay: MIC, dose-dependent solid media assay; format: cell-based, Aspergillus flavus; details: Aspergillus flavus
[7] = tested on: rat myoblast cells (H9c2); assay: Cell viability assay against H9c2 cell line; format: cell-based; details: concentrations up to 100 μM, 24 h
Description: as §1, §2

[8] = tested on: Methicillin resistant Staphylococcus aureus; assay: MIC, microbroth dilution; format: cell-based; details: Staphylococcus aureus, S. aureus (MRSA)
[9] = tested on: T. mentagrophytes; assay: MIC, dose-dependent solid media assay; format: cell-based, Trichophyton mentagrophytes; details: Trichophyton mentagrophytes
[10] = tested on: E. coli; assay: MIC, microbroth dilution; format: cell-based, Escherichia coli; details: for MIC: Escherichia coli
[11] = tested on: B. cereus; assay: MIC, microbroth dilution; format: cell-based, Bacillus cereus; details: Bacillus cereus
[12] = tested on: E. coli; assay: Growth inhibition screen in liquid medium; format: cell-based, Escherichia coli; details: screen at 50 and 12.5 μg/mL
Excerpt: These included four bacterial pathogens [Bacillus cereus (Gram-positive), Methicillin resistant Staphylococcus aureus (Gram-positive), Pseudomonas aeruginosa (Gram-negative), and Escherichia coli (Gram-negative)], a fungal pathogen (Candida albicans), and a yeast (Saccharomyces cerevisiae). […] Commercially available tavaborole, cycloheximide, and nystatin were also screened as benchmarks. […] In addition, the 3-substituted oxaboroles were screened in a dose-dependent manner on solid media against three spore-forming fungal pathogens: Trichophyton mentagrophytes, Penicillium chrysogenum, and Aspergillus flavus (Figures 2B and S152–S192). The compounds could not be screened for growth inhibition in liquid media against these pathogens due to clumping of the mycelia, which impeded the absorbance readings.

## OB1OCC=C1c1cccc(Br)c1 [Compound 6i]
[1]
  MIC: > 50 µg/mL
[1]; value in parentheses
  MIC: > 210 µM
[2]
  MIC: > 50 µg/mL
[2]; value in parentheses
  MIC: > 210 µM
[3]
  MIC: 50 µg/mL
[3]; value in parentheses
  MIC: 210 µM
[4]
  MIC: 10.4 ± 2 µg/mL
[4]; value in parentheses
  MIC: 43.7 µM
[5]
  hemolytic activity: none possessed hemolytic activity
[6]
  MIC: 25 µg/mL
[6]; value in parentheses
  MIC: 105 µM
[7]
  cytotoxic effects against rat myoblast cells (H9c2): none
[8]
  MIC: > 50 µg/mL
[8]; value in parentheses
  MIC: > 210 µM
[9]
  MIC: 25 µg/mL
[9]; value in parentheses
  MIC: 105 µM
[10]
  MIC: > 50 µg/mL
[10]; value in parentheses
  MIC: > 210 µM
[11]
  MIC: > 50 µg/mL
[11]; value in parentheses
  MIC: > 210 µM

## Cc1cccc(C2=CCOB2O)c1 [Compound 6u]
[1]
  MIC: > 50 µg/mL
[1]; value in parentheses
  MIC: > 287 µM
[2]
  MIC: > 50 µg/mL
[2]; value in parentheses
  MIC: > 287 µM
[3]
  MIC: 21 ± 4 µg/mL
[3]; value in parentheses
  MIC: 121 µM
[4]
  MIC: 25 µg/mL
[4]; value in parentheses
  MIC: 144 µM
[5]
  hemolytic activity: none possessed hemolytic activity
[6]
  MIC: 33 ± 8 µg/mL
[6]; value in parentheses
  MIC: 190 µM
[7]
  cytotoxic effects against rat myoblast cells (H9c2): none
[8]
  MIC: > 50 µg/mL
[8]; value in parentheses
  MIC: > 287 µM
[9]
  MIC: 42 ± 8 µg/mL
[9]; value in parentheses
  MIC: 241 µM
[10]
  MIC: > 50 µg/mL
[10]; value in parentheses
  MIC: > 287 µM
[11]
  MIC: > 50 µg/mL
[11]; value in parentheses
  MIC: > 287 µM

## OB1OCC=C1c1ccc2ccccc2c1 [Compound 6q]
[1]
  MIC: > 50 µg/mL
[1]; value in parentheses
  MIC: > 238 µM
[2]
  MIC: > 50 µg/mL
[2]; value in parentheses
  MIC: > 238 µM
[3]
  MIC: > 50 µg/mL
[3]; value in parentheses
  MIC: > 238 µM
[4]
  MIC: 12.5 µg/mL
[4]; value in parentheses
  MIC: 59.5 µM
[5]
  hemolytic activity: none possessed hemolytic activity
[6]
  MIC: > 50 µg/mL
[6]; value in parentheses
  MIC: > 238 µM
[7]
  cytotoxic effects against rat myoblast cells (H9c2): none
[8]
  MIC: > 50 µg/mL
[8]; value in parentheses
  MIC: > 238 µM
[9]
  MIC: > 50 µg/mL
[9]; value in parentheses
  MIC: > 238 µM
[10]
  MIC: > 50 µg/mL
[10]; value in parentheses
  MIC: > 238 µM
[11]
  MIC: > 50 µg/mL
[11]; value in parentheses
  MIC: > 238 µM

## OB1OCC=C1c1ccc2occc2c1 [Compound 6r]
[1]
  MIC: > 50 µg/mL
[1]; value in parentheses
  MIC: > 250 µM
[2]
  MIC: > 50 µg/mL
[2]; value in parentheses
  MIC: > 250 µM
[3]
  MIC: 5.2 ± 1 µg/mL
[3]; value in parentheses
  MIC: 26 µM
[4]
  MIC: 25 µg/mL
[4]; value in parentheses
  MIC: 125 µM
[5]
  hemolytic activity: none possessed hemolytic activity
[6]
  MIC: 50 µg/mL
[6]; value in parentheses
  MIC: 250 µM
[7]
  cytotoxic effects against rat myoblast cells (H9c2): none
[8]
  MIC: > 50 µg/mL
[8]; value in parentheses
  MIC: > 250 µM
[9]
  MIC: 50 µg/mL
[9]; value in parentheses
  MIC: 250 µM
[10]
  MIC: > 50 µg/mL
[10]; value in parentheses
  MIC: > 250 µM
[11]
  MIC: > 50 µg/mL
[11]; value in parentheses
  MIC: > 250 µM

## CC(C)(C)c1ccc(C2=CCOB2O)cc1 [Compound 6w]
[1]
  MIC: > 50 µg/mL
[1]; value in parentheses
  MIC: > 232 µM
[2]
  MIC: > 50 µg/mL
[2]; value in parentheses
  MIC: > 232 µM
[3]
  MIC: > 50 µg/mL
[3]; value in parentheses
  MIC: > 232 µM
[4]
  MIC: 12.5 µg/mL
[4]; value in parentheses
  MIC: 57.9 µM
[5]
  hemolytic activity: none possessed hemolytic activity
[6]
  MIC: > 50 µg/mL
[6]; value in parentheses
  MIC: > 232 µM
[7]
  cytotoxic effects against rat myoblast cells (H9c2): none
[8]
  MIC: > 50 µg/mL
[8]; value in parentheses
  MIC: > 232 µM
[9]
  MIC: > 50 µg/mL
[9]; value in parentheses
  MIC: > 232 µM
[10]
  MIC: > 50 µg/mL
[10]; value in parentheses
  MIC: > 232 µM
[11]
  MIC: > 50 µg/mL
[11]; value in parentheses
  MIC: > 232 µM

## OB1OCC=C1c1ccc(F)cc1 [Compound 6b]
[12]
  growth inhibition of E. coli: inhibited the growth
[1]
  MIC: > 50 µg/mL
[1]; value in parentheses
  MIC: > 281 µM
[2]
  MIC: > 50 µg/mL
[2]; value in parentheses
  MIC: > 281 µM
[3]
  MIC: 10.4 ± 2 µg/mL
[3]; value in parentheses
  MIC: 58.4 µM
[4]
  MIC: 25 µg/mL
[4]; value in parentheses
  MIC: 140 µM
[6]
  MIC: > 50 µg/mL
[6]; value in parentheses
  MIC: > 281 µM
[8]
  MIC: > 50 µg/mL
[8]; value in parentheses
  MIC: > 281 µM
[9]
  MIC: > 50 µg/mL
[9]; value in parentheses
  MIC: > 281 µM
[10]; value in parentheses
  MIC: 236 µM
[11]
  MIC: > 50 µg/mL
[11]; value in parentheses
  MIC: > 281 µM

## OB1OCC=C1c1ccc(Cl)cc1 [Compound 6e]
[12]
  growth inhibition of E. coli: inhibited the growth
[1]
  MIC: > 50 µg/mL
[1]; value in parentheses
  MIC: > 258 µM
[2]
  MIC: > 50 µg/mL
[2]; value in parentheses
  MIC: > 258 µM
[3]
  MIC: 5.2 ± 1 µg/mL
[3]; value in parentheses
  MIC: 26.8 µM
[4]
  MIC: 12.5 µg/mL
[4]; value in parentheses
  MIC: 64.4 µM
[6]
  MIC: 50 µg/mL
[6]; value in parentheses
  MIC: 258 µM
[8]
  MIC: > 50 µg/mL
[8]; value in parentheses
  MIC: > 258 µM
[9]
  MIC: 50 µg/mL
[9]; value in parentheses
  MIC: 258 µM
[10]
  MIC EC: 25 ± 0 µg/mL (≈ 129 µM)
  MIC: 20 to 50 µg/mL
[10]; value in parentheses
  MIC: 129 µM
[11]
  MIC: > 50 µg/mL
[11]; value in parentheses
  MIC: > 258 µM
